Data reported in patent publication US20250035634A1, “A METHOD FOR DETECTING CLUSTERING OF RAS PROTEIN” (Nanyang Technological University, priority 2021, published 2025).
pIC50: −log10 of the molar value.

Legend:
[1] = target: T1, HRasG12V (Homo sapiens, UniProt P01112, G12V); test: nanobar-guided HRasG12V clustering (Enrichment Index) in U2OS cells; format: cell-based
T1 construct: through full-length KRasG12V, HRasG12V and the truncated Ras isoforms tK-Ras and tH-Ras; expressed in transfected cells; host or cells: U2OS
Source text: Arrays of nanostructures on SiO2 surface of bar shape are fabricated with two curved ends and flat sidewalls using electron beam lithography (EBL). […] To conduct EBL, the chips are spin-coated with an electron-sensitive layer, 300 nm of positive electron-beam resist poly (methyl methacrylate) (PMMA) (MicroChem), followed by a conductive polymer layer of AR-PC 5090.02 (Allresist). Desired patterns are then written on the polymer through exposure to EBL (FEI Helios NanoLab), and developed in isopropanol:methylisobutylketone (IPA:MIBK)=3:1 solution. Subsequently, a 30-nm chromium (Cr) mask is deposited onto the surface via thermal evaporation (UNIVEX 250 Benchtop) and lift-off in acetone. […]
Cell imaging is performed with laser scanning confocal microscopy (Zeiss LSM 800 with Airyscan) and a Plan-Apochromat 100×/1.4 oil objective. EGFP is excited at 488 nm and detected at 490-570 nm. RFP is excited at 561 nm and detected at 570-645 nm. […] The images are conducted with a single snap shot for display of Ras variants and the quantification. […]
To quantify the nanobar-guided clustering of Ras variants, the fluorescence intensity ratio at the nanobar end to the flat sidewall (i.e. Enrichment Index, EI) is calculated. […] Next, the nanobars covered by the cell to be analyzed are identified by a custom-written MATLAB (MathWorks) code. […]

[2] = tested on: Calu-1 cells; conditions: 24 hrs, read-out: IC50, MTT assay growth inhibition; cited from earlier work
[3] = tested on: ASPC-1 cells; conditions: 24 hrs, read-out: IC50, MTT assay growth inhibition; cited from earlier work
[4] = tested on: HCT-116 cells; conditions: 24 hrs, read-out: IC50, MTT assay growth inhibition; cited from earlier work
[5] = target: T2, KRasG12V (Homo sapiens, UniProt P01116, G12V); test: nanobar-guided KRasG12V clustering (Enrichment Index) in U2OS cells; format: cell-based; conditions: for Enrichment Index (EI) of KRasG12V: mean±s.e.m.
T2 construct: through full-length KRasG12V, HRasG12V and the truncated Ras isoforms tK-Ras and tH-Ras; expressed in transfected cells; host or cells: U2OS
Source text: Arrays of nanostructures on SiO2 surface of bar shape are fabricated with two curved ends and flat sidewalls using electron beam lithography (EBL). […] To conduct EBL, the chips are spin-coated with an electron-sensitive layer, 300 nm of positive electron-beam resist poly (methyl methacrylate) (PMMA) (MicroChem), followed by a conductive polymer layer of AR-PC 5090.02 (Allresist). Desired patterns are then written on the polymer through exposure to EBL (FEI Helios NanoLab), and developed in isopropanol:methylisobutylketone (IPA:MIBK)=3:1 solution. Subsequently, a 30-nm chromium (Cr) mask is deposited onto the surface via thermal evaporation (UNIVEX 250 Benchtop) and lift-off in acetone. Nanostructures are generated through reactive ion etching with the mixture of CF4 and CHF3 (Oxford Plasmalab 80). After fabrication, scanning electron microscopy (SEM) (FEI Helios NanoLab) imaging can be performed after 10-nm Cr coating to measure the dimensional properties of nanostructures (FIG. 1, top). Before use, the nanostructured-chip is cleaned by Chromium Etchant (Sigma-Aldrich) to remove the remaining metal layer.
To culture the cells onto the nanostructured chip, the chip is first cleaned by air plasma treatment (Harrick Plasma) and sterilized by UV radiation. Additional coating reagents like extracellular matrix (ECM) protein components (e.g., fibronectin or gelatin, Sigma-Aldrich) can be added to promote cell attachment. After coating, the cells are plated and maintained in DMEM (Gibco) supplemented with fetal bovine serum (FBS, Life Technologies) and Penicillin-Streptomycin (Life Technologies) in a standard incubator at 37° C. with 5% CO2.
The Ras proteins can be expressed transiently by transfecting the fluorescent protein-tagged Ras plasmid (e.g., EGFP-KRasG12V, EGFP, enhanced green fluorescent protein) into cells using the Lipofectamine (Life Technologies) protocol or electroporation (e.g., Neon Transfection System, Thermo Fisher). If necessary, the transfection parameters (e.g., the amount of the plasmid, starvation time and expression time) and electroporation parameters (e.g., pulse voltage, pulse width, pulse number) can be optimized to reach the expected transfection efficiency and expression level. FBS can be removed at the expression step from the culture medium to prevent Ras activation.
To evaluate the effect of a Ras inhibitor on disrupting the Ras clusters, a gradient concentration and several treatment durations can be selected to determine the effective window. A control group with no treatment should be conducted at the same time. Before and after treatment of the same batch of cells can also be compared.
Cell imaging is performed with laser scanning confocal microscopy (Zeiss LSM 800 with Airyscan) and a Plan-Apochromat 100×/1.4 oil objective. EGFP is excited at 488 nm and detected at 490-570 nm. RFP is excited at 561 nm and detected at 570-645 nm. Images were taken with a resolution of 512×512 pixels, 16-bit and 124 nm pixel size. A scanning speed of 20 s/image and an averaging mode of 4 times/line can be applied. During imaging, the cells are maintained in live cell imaging solution (Thermo Fisher) at 37° C. in an on-stage incubator. […] The images are conducted with a single snap shot for display of Ras variants and the quantification. For the imaging of co-expressed K-Ras variants and CRaf-RBD, z-stack images can be taken and averaged for display and the intensity profiles. The calculation of Pearson correlation coefficient is also based on single snap shot.
To quantify the nanobar-guided clustering of Ras variants, the fluorescence intensity ratio at the nanobar end to the flat sidewall (i.e. Enrichment Index, EI) is calculated. The background signals of each image are firstly subtracted by the rolling ball algorithm in ImageJ (radius=3 pixels for 250 nm diameter nanobars). Next, the nanobars covered by the cell to be analyzed are identified by a custom-written MATLAB (MathWorks) code. […]

[6] = target: T3, K-Ras (Homo sapiens, UniProt P01116); conditions: Hela cells, 4 hrs; read-out: IC50, NanoBit assay measuring K-Ras activation; cited from earlier work
T3 construct: host or cells: HeLa

COc1ccc([C@@]23Oc4cc(OC)cc(OC)c4[C@]2(O)[C@H](O)[C@H](C(=O)N(C)C)[C@H]3c2ccccc2)cc1 [rocaglamide]
Enrichment Index (EI) of HRasG12V ([1]; rocaglamide 100 nM, 4 hrs, U2OS cells, mean±s.e.m.): 1.87±0.029
effect on bar-end accumulated clustering of HRasG12V ([1]; same drug treatment vs DMSO, U2OS cells on nanobars): no obvious changes
pIC50 [2]: 7.92
pIC50 [3]: 7.99
pIC50 [4]: 8.02
detection limit: concentration at which effect on KRasG12V clustering is detected ([5]; 1 hr treatment): 25 nM
pIC50 ([5]; KRasG12V, 1 hr, one-phase decay fit of EI, read-out: IC50 of the nanobar assay, effect on K-Ras clustering): 7.73
effect on bar-end accumulated clustering of KRasG12V ([5]; drug treatment vs DMSO, U2OS cells on nanobars): significant reduction
Enrichment Index (EI) of KRasG12V ([5]; rocaglamide 25 nM, 1 hr): 1.64±0.018
detection time: treatment time giving significant reduction of KRasG12V clustering ([5]; rocaglamide 50 nM): 15 min
Enrichment Index (EI) of KRasG12V ([5]; rocaglamide 50 nM, 15 mins): 1.72±0.032
Enrichment Index (EI) of KRasG12V ([5]; rocaglamide 50 nM, 1 hr): 1.55±0.021
Enrichment Index (EI) of KRasG12V ([5]; rocaglamide 50 nM, 4 hrs): 1.64±0.024
Enrichment Index (EI) of KRasG12V ([5]; rocaglamide 100 nM, 1 hr, U2OS cells): 1.58±0.027
pIC50 [6]: 7.61
